According to patent US8247211B2, “Glycopeptide antibiotics” (American Cyanamid Company, priority 2001, dated 2012):
≈ marks a conversion by molar mass, not a printed value. Values belong to the molecule of their own block, whether it stands above or below them.

Experiments:
Experiment in all cases: In vitro antibacterial evaluation: minimum inhibitory concentration (MIC), broth dilution method
Assay type in all cases: cell-based
Escherichia coli = conditions: broth dilution, 18 hours at 35° C.
Streptococcus sp. = conditions: broth dilution, 18 hours at 35° C.
Procedure, shortened: (§1)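 MIC read as lowest drug level preventing visible growth. Organisms at 5×10^5 CFU/mL were exposed to a 64-0.06 μg/mL dilution series in Muller-Hinton II […] following NCCLS broth dilution standard M7-A2.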

Enterococcus sp. = conditions: broth dilution, 18 hours at 35° C.
Procedure, shortened: as §1

Staphylococcus sp. = conditions: broth dilution, 18 hours at 35° C.; for MIC Staphylococcus aureus-SMITH (GC 4543): strain SMITH GC 4543
Procedure, shortened: as §1

[1] = Streptococcus agalactiae (GC 4564)
[2] = Streptococcus pneumoniae (ATCC 6301)
[3] = Streptococcus pneumoniae (GC 1894)
[4] = Streptococcus pneumoniae (GC 4565)
[5] = Streptococcus pyogenes (GC 4563)
[6] = Enterococcus faecalis (ATCC 29212)
[7] = Enterococcus faecalis (GC 2242)
[8] = Enterococcus faecalis (GC 2691)
[9] = Enterococcus faecalis (GC 3059)
[10] = Enterococcus faecalis (GC 4552)
[11] = Enterococcus faecalis (GC 4553)
[12] = Enterococcus faecalis (GC 4554)
[13] = Enterococcus faecalis (GC 6189)

SMILES: CC(c1ccccc1)C1NC(=O)CNC(=O)C(CO)NC(=O)C(C(O)C2CNC(=N)N2C2OC(CO)C(O)C(O)C2O)NC(=O)C(C(O)C2CNC(=N)N2)NC(=O)C(Cc2ccc3oc(SCc4ccc5ccccc5c4)nc3c2)NC1=O (stereo not drawn) [Example 46, Cyclo[3-[2-[(naphthylmethyl)thio]-1,3-benzoxazol-5-yl]alanyl-3-(2-iminoimidazolidin-4-yl)-seryl-3-(3-hexopyranosyl-2-iminoimidazolidin-4-yl)serylserylglycyl-β-methylphenylalanyl]]
MIC Escherichia coli (ATCC 25922) (Escherichia coli): 64 µg/mL (≈ 54.8 µM)
MIC Escherichia coli (GC 4559) (Escherichia coli): 64 µg/mL (≈ 54.8 µM)
MIC Escherichia coli (GC 4560) (Escherichia coli): 16 µg/mL (≈ 13.7 µM)
MIC Streptococcus agalactiae (GC 4564) (Streptococcus sp.; [1]): 8 µg/mL (≈ 6.85 µM)
MIC Streptococcus pneumoniae (ATCC 6301) (Streptococcus sp.; [2]): 8 µg/mL (≈ 6.85 µM)
MIC Streptococcus pneumoniae (GC 1894) (Streptococcus sp.; [3]): 8 µg/mL (≈ 6.85 µM)
MIC Streptococcus pneumoniae (GC 4565) (Streptococcus sp.; [4]): 8 µg/mL (≈ 6.85 µM)
MIC Streptococcus pyogenes (GC 4563) (Streptococcus sp.; [5]): 1 µg/mL (≈ 0.856 µM)
MIC Streptococcus agalactiae (GC 4564) (Streptococcus sp.): 8 µg/mL (≈ 6.85 µM)
MIC Streptococcus pneumoniae (ATCC 6301) (Streptococcus sp.): 8 µg/mL (≈ 6.85 µM)
MIC Streptococcus pneumoniae (GC 1894) (Streptococcus sp.): 8 µg/mL (≈ 6.85 µM)
MIC Streptococcus pneumoniae (GC 4565) (Streptococcus sp.): 8 µg/mL (≈ 6.85 µM)
MIC Streptococcus pyogenes (GC 4563) (Streptococcus sp.): 1 µg/mL (≈ 0.856 µM)
MIC Enterococcus avium (GC 4558) (Enterococcus sp.; Enterococcus avium (GC 4558)): 4 µg/mL (≈ 3.42 µM)
MIC Enterococcus faecalis (ATCC 29212) (Enterococcus sp.; [6]): 8 µg/mL (≈ 6.85 µM)
MIC Enterococcus faecalis (GC 2242) (Enterococcus sp.; [7]): 8 µg/mL (≈ 6.85 µM)
MIC Enterococcus faecalis (GC 2691) (Enterococcus sp.; [8]): 16 µg/mL (≈ 13.7 µM)
MIC Enterococcus faecalis (GC 3059) (Enterococcus sp.; [9]): 32 µg/mL (≈ 27.4 µM)
MIC Enterococcus faecalis (GC 4552) (Enterococcus sp.; [10]): 8 µg/mL (≈ 6.85 µM)
MIC Enterococcus faecalis (GC 4553) (Enterococcus sp.; [11]): 4 µg/mL (≈ 3.42 µM)
MIC Enterococcus faecalis (GC 4554) (Enterococcus sp.; [12]): 16 µg/mL (≈ 13.7 µM)
MIC Enterococcus faecalis (GC 6189) (Enterococcus sp.; [13]): 16 µg/mL (≈ 13.7 µM)
MIC Enterococcus faecium (GC 2243) (Enterococcus sp.; Enterococcus faecium (GC 2243)): 4 µg/mL (≈ 3.42 µM)
MIC Enterococcus faecium (GC 4556) (Enterococcus sp.; Enterococcus faecium (GC 4556)): 16 µg/mL (≈ 13.7 µM)
MIC Enterococcus faecium (GC 4557) (Enterococcus sp.; Enterococcus faecium (GC 4557)): 8 µg/mL (≈ 6.85 µM)
MIC Enterococcus avium (GC 4558) (Enterococcus sp.): 4 µg/mL (≈ 3.42 µM)
MIC Enterococcus faecalis (ATCC 29212) (Enterococcus sp.): 8 µg/mL (≈ 6.85 µM)
MIC Enterococcus faecalis (GC 2242) (Enterococcus sp.): 8 µg/mL (≈ 6.85 µM)
MIC Enterococcus faecalis (GC 2691) (Enterococcus sp.): 16 µg/mL (≈ 13.7 µM)
MIC Enterococcus faecalis (GC 3059) (Enterococcus sp.): 32 µg/mL (≈ 27.4 µM)
MIC Enterococcus faecalis (GC 4552) (Enterococcus sp.): 8 µg/mL (≈ 6.85 µM)
MIC Enterococcus faecalis (GC 4553) (Enterococcus sp.): 4 µg/mL (≈ 3.42 µM)
MIC Enterococcus faecalis (GC 4554) (Enterococcus sp.): 16 µg/mL (≈ 13.7 µM)
MIC Enterococcus faecalis (GC 6189) (Enterococcus sp.): 16 µg/mL (≈ 13.7 µM)
MIC Enterococcus faecium (GC 2243) (Enterococcus sp.): 4 µg/mL (≈ 3.42 µM)
MIC Enterococcus faecium (GC 4556) (Enterococcus sp.): 16 µg/mL (≈ 13.7 µM)
MIC Enterococcus faecium (GC 4557) (Enterococcus sp.): 8 µg/mL (≈ 6.85 µM)
MIC Coagulase Negative Staphylococcus (GC 4547) (Staphylococcus sp.): 4 µg/mL (≈ 3.42 µM)
MIC Coagulase Negative Staphylococcus (GC 4548) (Staphylococcus sp.): 8 µg/mL (≈ 6.85 µM)
MIC Coagulase Negative Staphylococcus (GC 4549) (Staphylococcus sp.): 2 µg/mL (≈ 1.71 µM)
MIC Coagulase Negative Staphylococcus (GC 4551) (Staphylococcus sp.): 4 µg/mL (≈ 3.42 µM)
MIC Staphylococcus aureus SMITH (GC 4543) (Staphylococcus sp.): 4 µg/mL (≈ 3.42 µM)
MIC Staphylococcus haemolyticus (GC 4546) (Staphylococcus sp.): 8 µg/mL (≈ 6.85 µM)
MIC Staphylococcus aureus-SMITH (GC 4543) (Staphylococcus sp.): 4 µg/mL (≈ 3.42 µM)

MIC Escherichia coli (ATCC 25922) (Escherichia coli): >64 µg/mL
MIC Escherichia coli (GC 4559) (Escherichia coli): >64 µg/mL
MIC Escherichia coli (GC 4560) (Escherichia coli): 32 µg/mL (≈ 26.8 µM)
MIC Streptococcus agalactiae (GC 4564) (Streptococcus sp.; [1]): 2 µg/mL (≈ 1.67 µM)
MIC Streptococcus pneumoniae (ATCC 6301) (Streptococcus sp.; [2]): 4 µg/mL (≈ 3.35 µM)
MIC Streptococcus pneumoniae (GC 1894) (Streptococcus sp.; [3]): 2 µg/mL (≈ 1.67 µM)
MIC Streptococcus pneumoniae (GC 4565) (Streptococcus sp.; [4]): 8 µg/mL (≈ 6.7 µM)
MIC Streptococcus pyogenes (GC 4563) (Streptococcus sp.; [5]): 1 µg/mL (≈ 0.837 µM)
MIC Streptococcus agalactiae (GC 4564) (Streptococcus sp.): 2 µg/mL (≈ 1.67 µM)
MIC Streptococcus pneumoniae (ATCC 6301) (Streptococcus sp.): 4 µg/mL (≈ 3.35 µM)
MIC Streptococcus pneumoniae (GC 1894) (Streptococcus sp.): 2 µg/mL (≈ 1.67 µM)
MIC Streptococcus pneumoniae (GC 4565) (Streptococcus sp.): 8 µg/mL (≈ 6.7 µM)
MIC Streptococcus pyogenes (GC 4563) (Streptococcus sp.): 1 µg/mL (≈ 0.837 µM)
MIC Enterococcus avium (GC 4558) (Enterococcus sp.; Enterococcus avium (GC 4558)): 2 µg/mL (≈ 1.67 µM)
MIC Enterococcus faecalis (ATCC 29212) (Enterococcus sp.; [6]): 8 µg/mL (≈ 6.7 µM)
MIC Enterococcus faecalis (GC 2242) (Enterococcus sp.; [7]): 4 µg/mL (≈ 3.35 µM)
MIC Enterococcus faecalis (GC 2691) (Enterococcus sp.; [8]): 32 µg/mL (≈ 26.8 µM)
MIC Enterococcus faecalis (GC 3059) (Enterococcus sp.; [9]): 32 µg/mL (≈ 26.8 µM)
MIC Enterococcus faecalis (GC 4552) (Enterococcus sp.; [10]): 16 µg/mL (≈ 13.4 µM)
MIC Enterococcus faecalis (GC 4553) (Enterococcus sp.; [11]): 4 µg/mL (≈ 3.35 µM)
MIC Enterococcus faecalis (GC 4554) (Enterococcus sp.; [12]): 64 µg/mL (≈ 53.6 µM)
MIC Enterococcus faecalis (GC 6189) (Enterococcus sp.; [13]): 32 µg/mL (≈ 26.8 µM)
MIC Enterococcus faecium (GC 2243) (Enterococcus sp.; Enterococcus faecium (GC 2243)): 4 µg/mL (≈ 3.35 µM)
MIC Enterococcus faecium (GC 4556) (Enterococcus sp.; Enterococcus faecium (GC 4556)): 8 µg/mL (≈ 6.7 µM)
MIC Enterococcus faecium (GC 4557) (Enterococcus sp.; Enterococcus faecium (GC 4557)): 4 µg/mL (≈ 3.35 µM)
MIC Enterococcus avium (GC 4558) (Enterococcus sp.): 2 µg/mL (≈ 1.67 µM)
MIC Enterococcus faecalis (ATCC 29212) (Enterococcus sp.): 8 µg/mL (≈ 6.7 µM)
MIC Enterococcus faecalis (GC 2242) (Enterococcus sp.): 4 µg/mL (≈ 3.35 µM)
MIC Enterococcus faecalis (GC 2691) (Enterococcus sp.): 32 µg/mL (≈ 26.8 µM)
MIC Enterococcus faecalis (GC 3059) (Enterococcus sp.): 32 µg/mL (≈ 26.8 µM)
MIC Enterococcus faecalis (GC 4552) (Enterococcus sp.): 16 µg/mL (≈ 13.4 µM)
MIC Enterococcus faecalis (GC 4553) (Enterococcus sp.): 4 µg/mL (≈ 3.35 µM)
MIC Enterococcus faecalis (GC 4554) (Enterococcus sp.): 64 µg/mL (≈ 53.6 µM)
MIC Enterococcus faecalis (GC 6189) (Enterococcus sp.): 32 µg/mL (≈ 26.8 µM)
MIC Enterococcus faecium (GC 2243) (Enterococcus sp.): 4 µg/mL (≈ 3.35 µM)
MIC Enterococcus faecium (GC 4556) (Enterococcus sp.): 8 µg/mL (≈ 6.7 µM)
MIC Enterococcus faecium (GC 4557) (Enterococcus sp.): 4 µg/mL (≈ 3.35 µM)
MIC Coagulase Negative Staphylococcus (GC 4547) (Staphylococcus sp.): 16 µg/mL (≈ 13.4 µM)
MIC Coagulase Negative Staphylococcus (GC 4548) (Staphylococcus sp.): 2 µg/mL (≈ 1.67 µM)
MIC Coagulase Negative Staphylococcus (GC 4549) (Staphylococcus sp.): 0.5 µg/mL (≈ 0.419 µM)
MIC Coagulase Negative Staphylococcus (GC 4551) (Staphylococcus sp.): 8 µg/mL (≈ 6.7 µM)
MIC Staphylococcus aureus SMITH (GC 4543) (Staphylococcus sp.): 8 µg/mL (≈ 6.7 µM)
MIC Staphylococcus aureus-SMITH (GC 4543) (Staphylococcus sp.): 8 µg/mL (≈ 6.7 µM)
SMILES: CC(c1ccccc1)C1NC(=O)CNC(=O)C(CO)NC(=O)C(C(O)C2CNC(=N)N2C2OC(CO)C(O)C(O)C2O)NC(=O)C(C(O)C2CNC(=N)N2)NC(=O)C(Cc2ccc3oc(SCc4ccc(-c5ccccc5)cc4)nc3c2)NC1=O (stereo not shown) [Example 47]
MIC Staphylococcus haemolyticus (GC 4546) (Staphylococcus sp.): 8 µg/mL (≈ 6.7 µM)
